Measurements reported in PubChem BioAssay AID248 (DTP/NCI, 2004).
Where “and” joins values, the source holds several entries; their conditions need not be identical. Identical values can stand only once. Toxic doses and inconclusive results are not listed. No stated cut-off is given here; in the data, active means T/C of 150% or more; inactive means T/C below 125%.

Tested on: L1210 leukemia ip in BDF1 mice, survival T/C
Assay: NCI In Vivo Anticancer Drug Screen. Data for tumor model L1210 Leukemia (intraperitoneal) in B6D2F1 (BDF1) mice
Settings: endpoint: mean survival time, higher = longer survival
In short: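 Antitumor effect is assessed in tumor-bearing animals. Survival in the compound arm is compared with a vehicle-dosed control arm and expressed as their quotient.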

[1] = dose: 100.0 mg/kg/injection, schedule: Q04DX003 (ip), vehicle: Klucel (hydroxypropylcellulose) (HPC)
[2] = dose: 100.0 mg/kg/injection, schedule: Q01DX009 (ip), vehicle: saline with Tween-80
[3] = dose: 100.0 mg/kg/injection, schedule: Q04DX003 (ip), vehicle: saline with Tween-80
[4] = dose: 200.0 mg/kg/injection, schedule: Q01DX009 (ip), vehicle: saline with Tween-80
[5] = dose: 200.0 mg/kg/injection, schedule: Q04DX003 (ip), vehicle: saline with Tween-80
[6] = dose: 400.0 mg/kg/injection, schedule: Q01DX009 (ip), vehicle: saline with Tween-80
[7] = dose: 400.0 mg/kg/injection, schedule: Q04DX003 (ip), vehicle: saline with Tween-80
[8] = dose: 50.0 mg/kg/injection, schedule: Q01DX009 (ip), vehicle: saline with Tween-80
[9] = dose: 100.0 mg/kg/injection, schedule: Q04DX003 (ip), vehicle: saline
[10] = dose: 200.0 mg/kg/injection, schedule: Q04DX003 (ip), vehicle: saline
[11] = dose: 400.0 mg/kg/injection, schedule: Q04DX003 (ip), vehicle: saline
[12] = dose: 12.5 mg/kg/injection, schedule: Q01DX009 (ip), vehicle: saline with Tween-80
[13] = dose: 25.0 mg/kg/injection, schedule: Q01DX009 (ip), vehicle: saline with Tween-80
[14] = dose: 100.0 mg/kg/injection, schedule: Q04DX002 (ip), vehicle: saline with Tween-80
[15] = dose: 200.0 mg/kg/injection, schedule: Q04DX002 (ip), vehicle: saline with Tween-80
[16] = dose: 200.0 mg/kg/injection, schedule: Q04DX003 (ip), vehicle: Klucel (hydroxypropylcellulose) (HPC)
[17] = dose: 400.0 mg/kg/injection, schedule: Q04DX003 (ip), vehicle: Klucel (hydroxypropylcellulose) (HPC)
[18] = dose: 100.0 mg/kg/injection, schedule: Q01DX009 (ip), vehicle: Klucel (hydroxypropylcellulose) (HPC)
[19] = dose: 200.0 mg/kg/injection, schedule: Q01DX009 (ip), vehicle: Klucel (hydroxypropylcellulose) (HPC)
[20] = dose: 400.0 mg/kg/injection, schedule: Q01DX009 (ip), vehicle: Klucel (hydroxypropylcellulose) (HPC)
[21] = dose: 100.0 mg/kg/injection, schedule: Q04DX002 (ip), vehicle: Klucel (hydroxypropylcellulose) (HPC)
[22] = dose: 200.0 mg/kg/injection, schedule: Q04DX002 (ip), vehicle: Klucel (hydroxypropylcellulose) (HPC)

Measured: T/C

O=[N+]([O-])c1ccc(S(=O)(=O)OCc2ccccc2OS(=O)(=O)c2ccc([N+](=O)[O-])cc2)cc1
inactive: dose: 25.0 mg/kg/injection, schedule: Q01DX009 (ip), vehicle: saline sonified 103 % of control | dose: 50.0 mg/kg/injection, schedule: Q01DX009 (ip), vehicle: saline sonified 95 % of control | dose: 100.0 mg/kg/injection, schedule: Q01DX009 (ip), vehicle: saline sonified 100 % of control | [1] 91 % of control

CCCCCCCCCCCCC(CC(=O)O)C(=O)N(CCO)CCO (stereo not given)
inactive: dose: 12.5 mg/kg/injection, schedule: Q01DX001 (ip), vehicle: saline 97 % of control | dose: 25.0 mg/kg/injection, schedule: Q01DX001 (ip), vehicle: saline 94 % of control | dose: 50.0 mg/kg/injection, schedule: Q01DX001 (ip), vehicle: saline 91 % of control | dose: 200.0 mg/kg/injection, schedule: Q01DX001 (ip), vehicle: saline 97 % of control

CC1(c2cccc(N)c2)OCCO1
inactive: [2] 100 % of control | [3] 94 % of control | [4] 102 % of control | [5] 100 % of control | [6] 91 % of control | [7] 97 % of control

COC(=O)c1ncccc1C(=O)O
inactive: [8] 96 % of control | [2] 93 % of control

N#CCC1COc2ccccc2O1 (stereo not given)
inactive: dose: 100.0 mg/kg/injection, schedule: Q01DX001 (ip), vehicle: carboxymethylcellulose (CMC) 92 % of control | dose: 200.0 mg/kg/injection, schedule: Q01DX001 (ip), vehicle: carboxymethylcellulose (CMC) 97 % of control | dose: 400.0 mg/kg/injection, schedule: Q01DX001 (ip), vehicle: carboxymethylcellulose (CMC) 100 % of control

CNc1nn[nH]n1
inactive: [9] 100 % of control | [10] 93 % of control | [11] 89 % of control

CC(=O)[O][Hg][c]1cc(-c2ccc(N=Nc3c(S(=O)(=O)O)cc4cccc(N)c4c3O)cc2)ccc1N=Nc1c(S(=O)(=O)O)cc2cccc(N)c2c1O
inactive: dose: 3.13 mg/kg/injection, schedule: Q01DX009 (ip), vehicle: saline with Tween-80 86 % of control | dose: 6.25 mg/kg/injection, schedule: Q01DX009 (ip), vehicle: saline with Tween-80 86 % of control | [12] 92 % of control

ClC1=C(Cl)C2CCC1C2
inactive: [13] 88 % of control | [8] 98 % of control | dose: 100.0 mg/kg/injection, schedule: Q01DX005 (ip), vehicle: saline with Tween-80 96 % of control | [2] 94 % of control and 98 % of control | [14] 100 % of control | dose: 200.0 mg/kg/injection, schedule: Q01DX005 (ip), vehicle: saline with Tween-80 92 % of control | [15] 100 % of control | dose: 400.0 mg/kg/injection, schedule: Q01DX005 (ip), vehicle: saline with Tween-80 101 % of control

O=[N+]([O-])c1ccc(Cl)c(OCCCBr)c1
inactive: [1] 108 % of control | [16] 95 % of control | [17] 94 % of control

C=CCC1CC2(C)C(CCC3C2CCC2(C)C(C(C)CCCC(C)C)CCC32)CC1O (stereo not given)
inactive: dose: 100.0 mg/kg/injection, schedule: Q01DX009 (ip), vehicle: gum acacia 87 % of control | dose: 200.0 mg/kg/injection, schedule: Q01DX009 (ip), vehicle: gum acacia 87 % of control | dose: 400.0 mg/kg/injection, schedule: Q01DX009 (ip), vehicle: gum acacia 104 % of control

CCCCCCCCCCCC(=O)Nc1cc(C)ccc1N=Nc1ccc(C)cc1
inactive: dose: 50.0 mg/kg/injection, schedule: Q01DX009 (ip), vehicle: Klucel (hydroxypropylcellulose) (HPC) 86 % of control | [18] 95 % of control | [19] 88 % of control | [20] 90 % of control

CCCNC(=O)C1C2C=CC(C2)C1C(=O)NCCC (stereo not given)
inactive: [3] 91 % of control | [5] 91 % of control | [7] 91 % of control

O=S(=O)(Nc1cccc2ccccc12)c1ccc(Cl)cc1
inactive: [18] 102 % of control | [19] 87 % of control | [20] 95 % of control

COC(=O)C(Br)C(=O)OC
inactive: dose: 12.5 mg/kg/injection, schedule: Q04DX002 (ip), vehicle: saline with Tween-80 97 % of control | dose: 25.0 mg/kg/injection, schedule: Q04DX002 (ip), vehicle: saline with Tween-80 97 % of control

Nc1cccc2c1-c1ccccc1C2=O
inactive: dose: 50.0 mg/kg/injection, schedule: Q04DX002 (ip), vehicle: Klucel (hydroxypropylcellulose) (HPC) 103 % of control | [21] 88 % of control | [22] 103 % of control

C1SCSCS1
inactive: [21] 104 % of control | [22] 96 % of control | dose: 400.0 mg/kg/injection, schedule: Q04DX002 (ip), vehicle: Klucel (hydroxypropylcellulose) (HPC) 93 % of control

COC1=CC2C3=CC(C)C4C(=O)OC(=O)C4C3C1C1C(=O)OC(=O)C21 (stereo not given)
inactive: [8] 105 % of control | [2] 94 % of control

CCOC(=O)CC1COC(=O)C1C(=O)OCC (stereo not given)
inactive: [12] 105 % of control | [13] 105 % of control and 120 % of control | [8] 95 % of control | [2] 98 % of control and 122 % of control | [4] 118 % of control | [6] 106 % of control

FC(F)(F)c1nnnn1Cc1ccccc1
inactive: dose: 50.0 mg/kg/injection, schedule: Q04DX002 (ip), vehicle: saline 93 % of control | dose: 100.0 mg/kg/injection, schedule: Q04DX002 (ip), vehicle: saline 101 % of control | dose: 200.0 mg/kg/injection, schedule: Q04DX002 (ip), vehicle: saline 101 % of control

Nc1ccc(CCCCc2ccccc2)cc1Cl
inactive: [3] 100 % of control | [5] 100 % of control

COc1ccc(C(=O)/C=C/c2ccc(Cl)cc2)cc1
inactive: [1] 100 % of control | [16] 95 % of control | [17] 92 % of control

N#CCC(N)=S
inactive: dose: 25.0 mg/kg/injection, schedule: Q04DX002 (ip), vehicle: gum acacia 120 % of control | dose: 50.0 mg/kg/injection, schedule: Q04DX002 (ip), vehicle: gum acacia 109 % of control

CCOC(=O)CC1OC(=O)c2ccccc21 (stereo not given)
inactive: [14] 97 % of control | [15] 104 % of control | dose: 400.0 mg/kg/injection, schedule: Q04DX002 (ip), vehicle: saline with Tween-80 108 % of control

O=S(=O)(c1ccc(Br)cc1)c1ccc(Br)cc1
inactive: [3] 98 % of control | [5] 98 % of control | [7] 104 % of control

CC(=O)NCSCC(N)C(=O)O (stereo not given)
inactive: dose: 100.0 mg/kg/injection, schedule: Q01DX009 (ip), vehicle: saline 100 % of control | [9] 108 % of control | dose: 200.0 mg/kg/injection, schedule: Q01DX009 (ip), vehicle: saline 95 % of control | [10] 92 % of control | dose: 400.0 mg/kg/injection, schedule: Q01DX009 (ip), vehicle: saline 92 % of control | [11] 94 % of control

O=C(Nc1ccc(Cl)cc1C(F)(F)F)OCCOc1ccccc1Cl
inactive: [2] 91 % of control | [4] 95 % of control | [6] 93 % of control
